Source: PMC8703412 (Pharmaceuticals, 2021)
≈ marks a conversion by molar mass, not a printed value. Like-named read-outs stand apart in the source and are kept apart here.

What was measured:
HepG2 cells = assay: Cytotoxicity, CellTiter 96 (MTS) assay; details: read-out: Cytotoxicity for HepG2 cells, IC50; 24 h incubation, 1–1000 µM
[1] = test system: Mycobacterium kansasii 6509/96 (clinical isolate); assay: MIC micromethod in Šula's medium, M. kansasii; type: cell-based
[2] = test system: Mycobacterium tuberculosis strain 331/88 (i.e., H37Rv); assay: MIC micromethod in Šula's medium, drug-susceptible Mtb.; type: cell-based
[3] = test system: Mycobacterium avium 330/88; assay: MIC micromethod in Šula's medium, M. avium; type: cell-based
[4] = Cytotoxicity, CellTiter 96 (MTS) assay; details: human, Cytotoxicity for HepG2 cells, IC50, 24 h incubation, 1–1000 µM
Mtb. H37Ra pMV261-inhA = assay: microbe, parasite or virus in culture; type: cell-based, Mycobacterium tuberculosis; details: for MIC: Mycobacterium tuberculosis, H37RA, 672 h, read-out: MIC H37Ra pMV261-inhA
Mtb. H37Ra pMV261/pVV16 = assay: microbe, parasite or virus in culture; type: cell-based, Mycobacterium tuberculosis; details: for MIC: Mycobacterium tuberculosis, H37RA, 672 h, read-out: MIC H37Ra pMV261/pVV16
[5] = test system: Mtb. H37Ra pVV16-katGsmeg; assay: microbe, parasite or virus in culture; type: cell-based; details: Mycobacterium tuberculosis, 672 h, read-out: MIC H37Ra pVV16-katGsmeg
[6] = Solubility in the cytotoxicity concentration range; type: physicochemical; details: cytotoxicity assay medium, DMSO max 1% v/v
Protocol: The cells were seeded in a density 15,000 cells per well in a 96-well plate. The next day the cells were treated with each of the tested substances at a broad range of concentrations (1–1000 µM) in triplicates; the compounds were dissolved in DMSO (maximal incubation concentration of DMSO was 1% v/v). The controls representing 100% cell viability, 0% cell viability (the cells treated with 10% DMSO), no cell control and vehiculum controls were incubated in parallel, also as triplicates. After 24 h of incubation in a humidified atmosphere containing 5% CO2 at 37 °C, the reagent from the kit CellTiter 96 AQueous One Solution Cell Proliferation Assay (CellTiter 96; PROMEGA, Fitchburg, WI, USA) was added. After 2 h incubation at 37 °C, absorbance of samples was recorded at 490 nm (TECAN, Infinita M200, Grödig, Austria). A standard toxicological parameter IC50 was calculated by nonlinear regression from a semilogarithmic plot of incubation concentration versus percentage of absorbance relative to untreated controls using GraphPad Prism 8 software (GraphPad Software, Inc., La Jolla, CA, USA).
Cytotoxicity was quantified using the standard parameter IC50 (Figure 3).

[7] = test system: Mycobacterium tuberculosis strain 331/88 (i.e., H37Rv); set-up: method as in PMID 34198149; details: cited from earlier work
[8] = test system: Mycobacterium avium 330/88; set-up: method as in PMID 34198149; details: cited from earlier work
[9] = test system: Mycobacterium kansasii 6509/96 (clinical isolate); set-up: method as in PMID 34198149; details: cited from earlier work
[10] = Mycobacterium kansasii, 168 h, 7 d incubation, Table 1, read-out: MIC M. kansasii 6509/96 7 d
[11] = Mycobacterium kansasii, 336 h, 14 d incubation, Table 1, read-out: MIC M. kansasii 6509/96 14 d
[12] = Mycobacterium kansasii, 504 h, 21 d incubation, Table 1, read-out: MIC M. kansasii 6509/96 21 d
[13] = Mycobacterium tuberculosis, H37RV, 336 h, 14 d incubation, esters, Table 1, read-out: MIC Mtb. 331/88 14 d
[14] = Mycobacterium tuberculosis, H37RV, 504 h, 21 d incubation, esters, Table 1, read-out: MIC Mtb. 331/88 21 d
[15] = Mycobacterium avium, 330/88, 336 h, 14 d incubation, Table 1, read-out: MIC M. avium 330/88 14 d
[16] = Mycobacterium avium, 330/88, 504 h, 21 d incubation, Table 1, read-out: MIC M. avium 330/88 21 d
[17] = Mycobacterium kansasii, 504 h, text summary over 7, 14 and 21 d, read-out: MIC for M. kansasii 6509/96
[18] = Mycobacterium tuberculosis, H37RV, Table 4, read-out: MIC H37Rv
[19] = Mycobacterium avium, 330/88, 504 h, 14 and 21 d, read-out: MIC for M. avium

5-Isopropyl-2-methylphenyl (E)-2-(2-isonicotinoylhydrazineylidene)propanoate [3k]
IC50 (HepG2 cells): > 500 µM | MIC ([1]; 7 d incubation, Table 1, read-out: MIC M. kansasii 6509/96 7 d): 8 µM | MIC ([1]; 14 d incubation, Table 1, read-out: MIC M. kansasii 6509/96 14 d): 16 µM | MIC ([1]; 21 d incubation, Table 1, read-out: MIC M. kansasii 6509/96 21 d): 16 µM | fold lower activity than isomer 3l ([1]; M. kansasii 6509/96): 64 × | MIC ([2]; 14 d incubation, esters, Table 1, read-out: MIC Mtb. 331/88 14 d): 0.25 µM | MIC ([2]; 21 d incubation, esters, Table 1, read-out: MIC Mtb. 331/88 21 d): 0.25 µM | MIC ([3]; 14 d incubation, Table 1, read-out: MIC M. avium 330/88 14 d): 500 µM | MIC ([3]; 21 d incubation, Table 1, read-out: MIC M. avium 330/88 21 d): 1000 µM

C/C(=N\NC(=O)c1ccncc1)C(=O)Oc1ccc(Oc2ccccc2)cc1 [3e, 4-Phenoxyphenyl (E)-2-(2-isonicotinoylhydrazineylidene)propanoate]
IC50 at 24 h [4]: 551 µM | IC50 (HepG2 cells): > 500 µM | MIC [1, 10]: 2 µM (≈ 0.751 µg/mL) | MIC [1, 11]: 4 µM (≈ 1.5 µg/mL) | MIC [1, 12]: 4 µM (≈ 1.5 µg/mL) | MIC [2, 13]: ≤ 0.125 µM | MIC [2, 14]: 0.5 µM (≈ 0.188 µg/mL) | melting point: 152.4 to 155 °C | MIC [3, 15]: 250 µM (≈ 93.8 µg/mL) | MIC [3, 16]: 500 µM (≈ 188 µg/mL)

C/C(=N\NC(=O)c1ccncc1)C(=O)Oc1cccc2ccccc12 [3i, Naphthalen-1-yl (E)-2-(2-isonicotinoylhydrazineylidene)propanoate]
IC50 at 24 h [4]: 999 µM | IC50 (HepG2 cells): > 500 µM | MIC [1, 10]: 0.25 µM (≈ 0.0833 µg/mL) | MIC [1, 11]: 0.25 µM (≈ 0.0833 µg/mL) | MIC [1, 12]: 0.25 µM (≈ 0.0833 µg/mL) | MIC [1, 17]: ≤ 0.5 µM | MIC [2, 13]: 0.25 µM (≈ 0.0833 µg/mL) | MIC [2, 14]: 0.25 µM (≈ 0.0833 µg/mL) | melting point: 181.1 to 182.5 °C | MIC [3, 15]: 125 µM (≈ 41.7 µg/mL) | MIC [3, 16]: 250 µM (≈ 83.3 µg/mL)

C/C(=N\NC(=O)c1ccncc1)C(=O)Oc1ccc2ccccc2c1 [3j, Naphthalen-2-yl (E)-2-(2-isonicotinoylhydrazineylidene)propanoate]
IC50 at 24 h [4]: 682 µM | IC50 (HepG2 cells): > 500 µM | MIC [1, 10]: 0.25 µM (≈ 0.0833 µg/mL) | MIC [1, 11]: 0.25 µM (≈ 0.0833 µg/mL) | MIC [1, 12]: 0.5 µM (≈ 0.167 µg/mL) | MIC [1, 17]: ≤ 0.5 µM | MIC [2, 13]: 0.25 µM (≈ 0.0833 µg/mL) | MIC [2, 14]: 0.25 µM (≈ 0.0833 µg/mL) | melting point: 116 to 117.2 °C | MIC [3, 15]: 125 µM (≈ 41.7 µg/mL) | MIC [3, 16]: 250 µM (≈ 83.3 µg/mL)

C/C(=N\NC(=O)c1ccncc1)C(=O)Oc1cc(C(C)C)ccc1C [3l, 2-Isopropyl-5-methyphenyl (E)-2-(2-isonicotinoylhydrazineylidene)propanoate]
IC50 at 24 h [4]: > 1000 µM | MIC [1, 10]: 0.25 µM (≈ 0.0848 µg/mL) | MIC [1, 11]: 0.25 µM (≈ 0.0848 µg/mL) | MIC [1, 12]: 0.25 µM (≈ 0.0848 µg/mL) | MIC [1, 17]: ≤ 0.5 µM | MIC [2, 13]: 0.25 µM (≈ 0.0848 µg/mL) | MIC [2, 14]: 0.25 µM (≈ 0.0848 µg/mL) | MIC [2, 18]: 0.25 µM (≈ 0.0848 µg/mL) | MIC H37Ra pMV261-inhA (Mtb. H37Ra pMV261-inhA): 5 µM | MIC (Mtb. H37Ra pMV261-inhA): 5 µM (≈ 1.7 µg/mL) | MIC H37Ra pMV261/pVV16 (Mtb. H37Ra pMV261/pVV16): 0.25 | MIC (Mtb. H37Ra pMV261/pVV16): 0.25 µM (≈ 0.0848 µg/mL) | MIC [5]: 0.05 to 0.125 µM (≈ 0.017 to 0.0424 µg/mL) | MIC [3, 15]: 125 µM (≈ 42.4 µg/mL) | MIC [3, 16]: 250 µM (≈ 84.8 µg/mL)

C/C(=N\NC(=O)c1ccncc1)C(=O)Oc1cccc2cccnc12 [3m, Quinolin-8-yl (E)-2-(2-isonicotinoylhydrazineylidene)propanoate]
IC50 at 24 h [4]: 247 µM | MIC [1, 10]: 2 µM (≈ 0.669 µg/mL) | MIC [1, 11]: 4 µM (≈ 1.34 µg/mL) | MIC [1, 12]: 4 µM (≈ 1.34 µg/mL) | MIC [2, 13]: 0.25 µM (≈ 0.0836 µg/mL) | MIC [2, 14]: 0.5 µM (≈ 0.167 µg/mL) | MIC [2, 18]: 0.25 µM (≈ 0.0836 µg/mL) | melting point: 159.3 to 160.4 °C | MIC H37Ra pMV261-inhA (Mtb. H37Ra pMV261-inhA): 5 µM | MIC (Mtb. H37Ra pMV261-inhA): 5 µM (≈ 1.67 µg/mL) | MIC H37Ra pMV261/pVV16 (Mtb. H37Ra pMV261/pVV16): 0.25 | MIC (Mtb. H37Ra pMV261/pVV16): 0.25 µM (≈ 0.0836 µg/mL) | MIC [5]: 0.125 µM (≈ 0.0418 µg/mL) | MIC [3, 15]: 32 µM (≈ 10.7 µg/mL) | MIC [3, 19]: 32 to 64 µM (≈ 10.7 to 21.4 µg/mL) | MIC [3, 16]: 64 µM (≈ 21.4 µg/mL)

C/C(=N\NC(=O)c1ccncc1)C(=O)Oc1cc(Cl)ccc1Oc1ccc(Cl)cc1Cl [3o, 5-Chloro-2-(2,4-dichlorophenoxy)phenyl (E)-2-(2-isonicotinoylhydrazineylidene)propanoate]
IC50 at 24 h [4]: 211 µM | MIC [1, 10]: 4 µM (≈ 1.91 µg/mL) | MIC [1, 11]: 4 µM (≈ 1.91 µg/mL) | MIC [1, 12]: 8 µM (≈ 3.83 µg/mL) | MIC [2, 13]: ≤ 0.125 µM | MIC [2, 14]: ≤ 0.125 µM | MIC [2, 18]: 0.125 µM (≈ 0.0598 µg/mL) | melting point: 153 to 155 °C | MIC H37Ra pMV261-inhA (Mtb. H37Ra pMV261-inhA): 6 µM | MIC (Mtb. H37Ra pMV261-inhA): 6.25 µM (≈ 2.99 µg/mL) | solubility in the concentration range of 1–1000 μM [6]: without any solubility problem | MIC H37Ra pMV261/pVV16 (Mtb. H37Ra pMV261/pVV16): 0.325 | MIC (Mtb. H37Ra pMV261/pVV16): 0.325 µM (≈ 0.156 µg/mL) | MIC [5]: 0.125 µM (≈ 0.0598 µg/mL) | MIC [3, 15]: 64 µM (≈ 30.6 µg/mL) | MIC [3, 19]: 32 to 64 µM (≈ 15.3 to 30.6 µg/mL) | MIC [3, 16]: 64 µM (≈ 30.6 µg/mL)

C/C(=N\NC(=O)c1ccncc1)C(=O)O [compound 2, (E)-2-(2-isonicotinoylhydrazineylidene)propanoic acid]
MIC Mtb. 331/88 14 d ([7]; 14 d incubation): 1 µM (≈ 0.207 µg/mL) | MIC Mtb. 331/88 21 d ([7]; 21 d incubation): 1 µM (≈ 0.207 µg/mL) | MIC M. avium 330/88 14 d ([8]; 14 d incubation): 500 µM (≈ 104 µg/mL) | MIC M. avium 330/88 21 d ([8]; 21 d incubation): >1000 µM | MIC M. kansasii 6509/96 7 d ([9]; 7 d incubation): 8 µM (≈ 1.66 µg/mL) | MIC M. kansasii 6509/96 14 d ([9]; 14 d incubation): 16 µM (≈ 3.32 µg/mL) | MIC M. kansasii 6509/96 21 d ([9]; 21 d incubation): 16 µM (≈ 3.32 µg/mL)
